Assay results taken from patent US8778920B2, “3-cyano-quinoline derivatives with antiproliferative activity” (Janssen Pharmaceutica NV, priority 2004, dated 2014).
Structures can show the parent of a compound that is named as a salt.

Tested on: ovarian carcinoma cell line (SKOV3)
Assay: Serum starved, EGF stimulated proliferation assay on ovarian carcinoma SKOV3 cells (MTT)
Assay type: cell-based
Details: Homo sapiens, SK-OV-3, serum free, 72 hours EGF 100 ng/ml, b231 calls the values pIC50, read-out: SKOV3 cell (C3): IC50 (converted)
Method: The ovarian carcinoma cell line (SKOV3) was used in an epidermal growth factor stimulated cell proliferation assay, to assess the inhibitory effect of the compounds on EGF in whole cells. In a first step the SKOV3 cells were incubated for 24 hours in the presence of 10% FCS serum. In the second step the cells were incubated with the compounds to be tested in a serum free condition (37° C. and 5% (v/v) CO2) and subsequently stimulated for 72 hours with EGF at a final concentration of 100 ng/ml. The effect of the compounds on the EGF stimulation was finally assessed in a standard MTT cell viability assay.

- IC50: 158 nM
SMILES: COc1cc2ncc(C#N)c3c2cc1OCCCCCNCc1ccc(Br)cc1N3 [Compound 2, 4,6-ethanediylidenepyrido[4,3-b][6,1,12]benzoxadiazacyclopentadecine-1-carbonitrile, 17-bromo-8,9,10,11,12,13,14,19-octahydro-20-methoxy-, monohydrochloride]
